{"source": "patent US20200268716A1", "about": "“LULICONAZOLE AS ANTI-ACANTHAMOEBA AGENT AND METHOD FOR PRODUCING THE SAME” (Pola Pharma Inc., priority 2015, published 2020)", "key": {"[1]": {"test_system": "Acanthamoeba polyphaga (A. polyphaga; clinical isolate)", "assay": "Growth inhibition of Acanthamoeba polyphaga by luliconazole in solution (methanol specimen), amoebae counted in a Neubauer counting chamber", "assay_type": "cell-based", "conditions": "25° C., 72 hours", "protocol": "Acanthamoeba polyphaga (A. polyphaga; clinical isolate) was cultured in an ATCC712 medium (hereinafter simply referred to as medium) at 25° C. for 1 week, and the medium was adjusted by adding a medium so that the number of the amoebae was 100,000 amoebae/mL, to make a preculture liquid. A control and samples were prepared by adding 4.3 mL of medium, 200 μL of specimen, and 500 μL of preculture liquid. The amoebae were cultured at 25° C. for 72 hours, and the number of the amoebae was counted by a Neubauer counting chamber.\nLuliconazole used in the specimen was obtained as described below. A compound was synthesized according to a method described in Japanese Patent Laid-Open No. 60-218387, an ethyl acetate/normal hexane mixture (5:1) was added, and the resultant was warmed at 60° C. and dissolved under stirring. Crystals were precipitated while stirring the resultant in cooling water at 5° C., were filtered, and dried by sending air at 40° C. for 48 hours to obtain the crystals.\nThe specimen was prepared using methanol as a solvent so that the final concentration of luliconazole was 0, 5, 10, 20, or 40 μg/mL. The specimen in which the final concentration of luliconazole was 0 μg/mL was used as the control.\nGrowth inhibition rates were determined based on [(the number of amoebae in control−the number of amoebae in each sample)/the number of amoebae in control]×100. MIC and IC50 were calculated based on the growth inhibition rates by a usual method. MIC was 40 μg/mL, and IC50 was 20 μg/mL."}, "[2]": {"test_system": "Acanthamoeba polyphaga (A. polyphaga)", "assay": "Growth inhibition of Acanthamoeba polyphaga by solid luliconazole crystals (1 mg added to culture)", "assay_type": "cell-based", "conditions": "1 mg of solid crystals added after 48 hours preculture; 25° C., 72 hours", "protocol": "The anti-Acanthamoeba activities of the crystals in Examples 2 to 6 were examined based on the method in Example 1. In other words, Acanthamoeba polyphaga (A. polyphaga) of which the number of the amoebae was 50,000 with respect to 4.5 mL of ATCC712 medium was dispersed and seeded in 500 μL of medium, and was preliminarily cultured at 25° C. for 48 hours. To the resultant, 1 mg of each of the crystals in Examples 2 to 6 was added to prepare a control and samples. The culture was further continued at 25° C. for 72 hours, and the number of the amoebae in the culture liquid was measured by a Neubauer counting chamber. The control, to which nothing was added, and in which the amoebae were cultured, was used. Growth inhibition rates were calculated from the counted values according to an expression of [(the number of amoebae in control−the number of amoebae in each sample)/the number of amoebae in control]×100."}, "[3]": {"conditions": "calculated from growth inhibition rates"}}}
{"compound": "N#C/C(=C1/SC[C@@H](c2ccc(Cl)cc2Cl)S1)n1ccnc1", "note": "[luliconazole]", "values": [{"measurement": "IC50", "setting": "[1]; [3]", "result": 20, "unit": "µg/mL"}, {"measurement": "MIC", "setting": "[1]; [3]", "result": 40, "unit": "µg/mL"}, {"measurement": "inhibition at 5 µg/mL", "setting": "[1]; luliconazole final concentration 5 μg/mL, ATCC712 medium, read-out: Inhibition Rate (%)", "result": 20, "unit": "%"}, {"measurement": "inhibition at 10 µg/mL", "setting": "[1]; luliconazole final concentration 10 μg/mL, ATCC712 medium, read-out: Inhibition Rate (%)", "result": 40, "unit": "%"}, {"measurement": "inhibition at 20 µg/mL", "setting": "[1]; luliconazole final concentration 20 μg/mL, ATCC712 medium, read-out: Inhibition Rate (%)", "result": 50, "unit": "%"}, {"measurement": "inhibition at 40 µg/mL", "setting": "[1]; luliconazole final concentration 40 μg/mL, ATCC712 medium, read-out: Inhibition Rate (%)", "result": 95, "unit": "%"}]}
{"compound": "N#C/C(=C1/SC[C@@H](c2ccc(Cl)cc2Cl)S1)n1ccnc1", "note": "[Crystal in Example 3, luliconazole]", "values": [{"measurement": "Growth Inhibition Rate (%)", "setting": "[2]", "result": 25.9, "unit": "%"}]}
{"compound": "N#C/C(=C1/SC[C@@H](c2ccc(Cl)cc2Cl)S1)n1ccnc1", "note": "[Crystal in Example 5, luliconazole]", "values": [{"measurement": "Growth Inhibition Rate (%)", "setting": "[2]", "result": 77.0, "unit": "%"}]}
{"compound": "N#C/C(=C1/SC[C@@H](c2ccc(Cl)cc2Cl)S1)n1ccnc1", "note": "[Crystal in Example 4, luliconazole]", "values": [{"measurement": "Growth Inhibition Rate (%)", "setting": "[2]", "result": 69.6, "unit": "%"}]}
{"compound": "N#C/C(=C1/SC[C@@H](c2ccc(Cl)cc2Cl)S1)n1ccnc1", "note": "[Crystal in Example 6, luliconazole]", "values": [{"measurement": "Growth Inhibition Rate (%)", "setting": "[2]", "result": 54.8, "unit": "%"}]}
{"compound": "N#C/C(=C1/SC[C@@H](c2ccc(Cl)cc2Cl)S1)n1ccnc1", "note": "[Crystal in Example 2, luliconazole]", "values": [{"measurement": "Growth Inhibition Rate (%)", "setting": "[2]", "result": 66.7, "unit": "%"}]}
